Test results reported in US20100249112A1, “COMBINATION OF CHK AND PARP INHIBITORS FOR THE TREATMENT OF CANCERS” (ASTRAZENECA R&D, priority 2007, published 2010).
Read-outs that look alike come from different tables or passages of the source.

Assays:
NCI-H460dnp53 cell line = experiment: MTS cell viability assay, CHK-PARP combination, NCI-H460dnp53; type: cell-based
Procedure: (§1) Combination experiments were carried out to assess the ability of a CHK inhibitor, i.e., 5-(3-Fluoro-phenyl)-3-ureido-thiophene-2-carboxylic acid (S)-piperidin-3-ylamide, to sensitize cells to a PARP inhibitor, i.e., 4-[3-(4-Cyclopropanecarbonyl-piperazine-1-carbonyl)-4-fluoro-benzyl]-2H-phthalazin-1-one, using a cell viability endpoint.
(§2) The cell lines used in this study were SW620, which endogenously express mutant p53, and NCI-H460dominant negative p53 (NCI-H460dnp53), which are stably transfected to express dominant negative p53. Cells were seeded in 96-well plates on day 0 and treated with either a single drug or simultaneously with both drugs for 4 days beginning on Day 1.
(§3) For sequential addition, either the CHK inhibitor i.e., 5-(3-Fluoro-phenyl)-3-ureido-thiophene-2-carboxylic acid (S)-piperidin-3-ylamide, or the PARP inhibitor, i.e., 4-[3-(4-Cyclopropanecarbonyl-piperazine-1-carbonyl)-4-fluoro-benzyl]-2H-phthalazin-1-one, were added to cells for 24 hours beginning on Day 1, followed by addition of the other drug on Day 2, and exposure to both drugs continued for an additional 72 hours. […] Cells were dosed with the PARP inhibitor to generate a full dose-response curve. See Table 1 for an example of the drug concentrations used in each cell line.
(§4) Cell viability was measured on day 5 using an MTS colorimetric assay. Dose (concentration of drug used, uM) vs. Fraction unaffected (Fu) for PARP alone versus in combination were plotted. Replicate points for the constant concentration of the CHK inhibitor were also plotted. Data were analyzed by comparing the dose-response curve of the single agent to that for the combination.

SW 620 tumors = experiment: SW 620 tumor growth inhibition in female nude mice; type: in vivo; details: 3 weeks
Procedure: (§5) SW 620 tumors were staged in female nude mice as described in Chapter 31 “In vivo Tumor response End Points” by B. A. Teicher (see “Tumor Models in Cancer Research” edited by Beverly A. Teicher, p596. Published by Humana Press Inc. 2002). Treatment started when tumors reached ˜170 mm^3. There were 6 groups in this study with n=10/group. PARP inhibitor 4-[3-(4-Cyclopropanecarbonyl-piperazine-1-carbonyl)-4-fluoro-benzyl]-2H-phthalazin-1-one was given 5 times weekly at 50 mg/kg PO. CHK inhibitor 5-(3-Fluoro-phenyl)-3-ureido-thiophene-2-carboxylic acid (S)-piperidin-3-ylamide was given at 12.5 mg/kg and 25 mg/kg twice weekly IV. The combination groups received PARP inhibitor at 50 mg/kg (5 times a week) and, 2 hours later, the CHK inhibitor at 12.5 or 25 mg/kg (twice a week). Mice received 3 weeks of treatment. Overall, treatment was well tolerated except in one case where a mouse was receiving a CHK inhibitor in the 25 mg/kg group it was found dead prior to study endpoint.

SW620 cell line = experiment: MTS cell viability assay, CHK-PARP combination, SW620; type: cell-based; details: for IC50: Homo sapiens, SW-620, 96 h
Procedure: as §1, §2, §3, §4

[1] = Tolerability / max weight loss in the SW 620 tumor study; type: in vivo; details: for Max weight loss: 3 weeks, female nude mice
Procedure: as §5

| SMILES | IC50 (NCI-H460dnp53 cell line; 96 h, constant CHK inhibitor 0.33 uM, simultaneous addition, 4 days, 3 experiments, read-out: IC50 of PARP inhibitor, CHK inhibitor + PARP inhibitor simultaneous) | IC50 (NCI-H460dnp53 cell line; 96 h, single agent, 4 days exposure, representative, 3 experiments, read-out: IC50 of PARP inhibitor alone) | IC50 (NCI-H460dnp53 cell line; CHK inhibitor 24 hours, then both drugs for additional 72 hours, 1 experiment, read-out: IC50 of PARP inhibitor, CHK inhibitor followed by PARP inhibitor) | IC50 (NCI-H460dnp53 cell line; PARP inhibitor 24 hours, then both drugs for additional 72 hours, 1 experiment, read-out: IC50 of PARP inhibitor, PARP inhibitor followed by CHK inhibitor) | Tumor Growth Inhibition % (SW 620 tumors; 50 mg/kg PO 5 times weekly, p > 0.1) | IC50 (SW620 cell line; constant CHK inhibitor 0.28 uM, simultaneous, 4 days, from 2 independent experiments, not directly comparable, read-out: IC50 of PARP inhibitor, CHK inhibitor + PARP inhibitor simultaneous) | IC50 (SW620 cell line; single agent, 4 days exposure, representative, 3 experiments, read-out: IC50 of PARP inhibitor alone) | Activity of CHK inhibitor as a single agent at the constant concentration used (NCI-H460dnp53 cell line; 0.33 uM, determined previously) | Tumor Growth Inhibition % (SW 620 tumors; 12.5 mg/kg twice weekly IV, p > 0.05) | Tumor Growth Inhibition % (SW 620 tumors; 25 mg/kg twice weekly IV, p > 0.05) | Max weight loss ([1]; 12.5 mg/kg twice weekly IV) | Death prior to study endpoint ([1]; 25 mg/kg group, one mouse) | Max weight loss ([1]; 25 mg/kg twice weekly IV) | Activity of CHK inhibitor as a single agent at the constant concentration used (SW620 cell line; 0.28 uM, determined previously) |
| --- | --- | --- | --- | --- | --- | --- | --- | --- | --- | --- | --- | --- | --- | --- |
| O=C(c1cc(Cc2n[nH]c(=O)c3ccccc23)ccc1F)N1CCN(C(=O)C2CC2)CC1 [PARP inhibitor, 4-[3-(4-Cyclopropanecarbonyl-piperazine-1-carbonyl)-4-fluoro-benzyl]-2H-phthalazin-1-one] | 1.9 µM | 17.6 µM | 4.1 µM | 3.6 µM | 22% | 5.8 µM | 19.4 µM | – | – | – | – | – | – | – |
| NC(=O)Nc1cc(-c2cccc(F)c2)sc1C(=O)N[C@H]1CCCNC1 [CHK inhibitor, 5-(3-Fluoro-phenyl)-3-ureido-thiophene-2-carboxylic acid (S)-piperidin-3-ylamide] | – | – | – | – | – | – | – | little or no activity | 15% | 22% | 2% | found dead | 1% | little or no activity |
